Results reported in patent publication US10954305B2 (Immunomedics, Inc., priority 2016, dated 2021).

Assays:
sublines of PC-6 = conditions: Kawabata et al., 2001; cited from earlier work
NCI-N87 [1] = assay: in vitro cytotoxicity, MTS (Table 14); format: cell-based; conditions: Homo sapiens, YHO-13351 2 μM, Ko143 1 μM where added
Protocol: (§1) Each cell line was maintained according to the recommendations of ATCC and routinely tested for mycoplasma using MYCOALERT™ mycoplasma detection kits (Lonza). The two SN-38-resistant cell lines, MDA-MB-231-5120 and NCI-N87-S120, were established by continuous exposure of the parental cells to stepwise increased concentrations of SN-38 from 6 pM to 120 nM over a period of approximately 2 years. In addition, a revertant cell line (NCI-N87-S120-REV) was obtained after culturing NCI-N87-S120 in SN-38-free medium for 4 months. The S-120 clones were maintained in medium containing 120 nM of SN-38, but cultured in drug-free medium for 7 to 14 days prior to any experiment. All cells were grown at 37° C. as monolayer cultures in a humidified atmosphere of 5% CO2.
(§2) In Vitro cytotoxicity. […] Briefly, cells were placed into wells of 96-well plates. […] Cytotoxicity was measured as a percent of growth relative to untreated cells. Dose-response curves were generated from the mean of triplicate determinations, and IC50 values were calculated using GraphPad Prism Software V 6.05 (Advanced Graphics Software).
(§3) The effect of ABCG2 inhibitors on the IC50 values of SN-38 for the parental and resistant cell lines was determined from the respective dose-response curves obtained for SN-38 in the presence of a non-toxic concentration of ABCG2 inhibitors.

MDA-MB-231 [2] = assay: in vitro cytotoxicity, MTS (Table 14); format: cell-based, human; conditions: YHO-13351 2 μM where added
Protocol: as §1
as §2, with “plates. […] From these working solutions, serial 5-fold dilutions were made in sterile media to yield final concentrations between 500 and 0.0064 nM in test wells.” for “plates.”
as §3

MDA-MB-231-S120 = assay: in vitro cytotoxicity, MTS (Table 14); format: cell-based, human; conditions: for IC50: MDA-MB-231-S120, YHO-13351 2 μM where added; for RF (resistance factor): IC50 mean of MDA-MB-231-S120 / MDA-MB-231
Protocol: as §1
as §2, with “plates. […] From these working solutions, serial 5-fold dilutions were made in sterile media to yield final concentrations between 500 and 0.0064 nM in test wells.” for “plates.”
as §3

NCI-N87-S120 = assay: in vitro cytotoxicity, MTS (Table 14); format: cell-based, human; conditions: for IC50: NCI-N87-S120, YHO-13351 2 μM, Ko143 1 μM where added; for RF (resistance factor): IC50 mean of NCI-N87-S120 / NCI-N87
Protocol: as §1
as §2, with “plates. […] From these working solutions, serial 5-fold dilutions were made in sterile media to yield final concentrations between 500 and 0.0064 nM in test wells.” for “plates.”
as §3

sublines of HeLa = conditions: Takara et al., 2009; cited from earlier work
subline of H23 = conditions: Bessho et al., 2006; cited from earlier work
[3] = Weidner et al., 2015; cited from earlier work
NCI-N87-S120-REV = assay: in vitro cytotoxicity, MTS; format: cell-based, human; conditions: revertant after 4 months in SN-38-free medium
Protocol: as §1
as §2, with “plates. […] From these working solutions, serial 5-fold dilutions were made in sterile media to yield final concentrations between 500 and 0.0064 nM in test wells.” for “plates.”

p53 in BxPC-3 and Calu-3 = assay: p53 expression; format: cell-based, human
Protocol: In addition, p53 expression in cells exposed to the ADC was higher in both cell lines compared to SN-38 (not shown). […] In terms of later apoptotic events, cleavage of PARP was evident in both cell lines when incubated with either SN-38 or the conjugate (not shown). […] The higher degree of cleavage with free SN-38 over the ADC was consistent with the cytotoxicity findings.

p21^Waf1/Cip1 in BxPC-3 = assay: p21Waf1/Cip1 expression; format: cell-based, human
From the text: SN-38 is known to activate several signaling pathways in cells, leading to apoptosis (e.g., Cusack et al., 2001, Cancer Res 61:3535-40; Liu et al. 2009, Cancer Lett 274:47-53; Lagadec et al., 2008, Br J Cancer 98:335-44). Our initial studies examined the expression of 2 proteins involved in early signaling events (p21^Waf1/Cip1 and p53) and 1 late apoptotic event [cleavage of poly-ADP-ribose polymerase (PARP)] in vitro (not shown).

MDA-MB-231 [4] = assay: double-strand breaks, γH2AX; format: cell-based, human; conditions: 250 nM, after 3 h
Protocol: (§4) Cells (5×10^5 cells/mL per sample) were incubated with or without SN-38 (250 nM) at 37° C. for the indicated times, fixed in 4% formalin for 15 min, then washed and permeabilized in 0.15% TRITON™ X-100 in PBS for 15 min. After washing twice with 1% bovine serum albumin-PBS, the cells were incubated with murine anti-γH2AX-AF488 for 45 min at 4° C. The signal intensity of γH2AX was measured by flow cytometry using a FACSCALIBUR™ (BD Biosciences).

NCI-N87 [5] = assay: double-strand breaks, γH2AX; format: cell-based, human; conditions: 250 nM, after 3 h
Protocol: as §4

[6] = system: p21^WAF1/Cip1 in MDA-MB-468; assay: immunoblotting of apoptotic pathway; format: cell-based, human; conditions: by 48 h
Protocol: Cells (2×10^6) were plated in 6-well plates overnight. […] Parental hRS7 was used as a control for the ADC.

COc1cccc2c1C(=O)c1c(O)c3c(c(O)c1C2=O)C[C@@](O)(C(=O)CO)C[C@@H]3O[C@H]1C[C@H](N)[C@H](O)[C@H](C)O1 [Doxorubicin]
resistance ratio (sublines of PC-6): less than 1.3 | IC50 (NCI-N87 [1]): 0.0322 ± 0.0075 µM | IC50 (MDA-MB-231 [2]; Homo sapiens): 0.0109 ± 0.0006 µM | IC50 (MDA-MB-231-S120; Homo sapiens): 0.0431 ± 0.0046 µM | RF (resistance factor) (MDA-MB-231-S120): 4.0 | IC50 (NCI-N87-S120; Homo sapiens): 0.0746 ± 0.0033 µM | RF (resistance factor) (NCI-N87-S120): 2.3 | resistance ratio (sublines of HeLa): 2.5 | resistance ratio (subline of H23): about 7.0

COc1ccc2c3c([nH]c2c1)[C@H](CC(C)C)N1C(=O)[C@H](CCC(=O)OC(C)(C)C)NC(=O)[C@@H]1C3 [Ko143]
stability in rat serum [3]: instability | effect on SN-38 toxicity in S-120 cells (NCI-N87-S120; both S-120 cells, in vitro): restored toxicity of SN-38

CCc1c2c(nc3ccc(O)cc13)-c1cc3c(c(=O)n1C2)COC(=O)[C@]3(O)CC [SN-38, 7-ethyl-10-hydroxycamptothecin]
IC50 (NCI-N87-S120-REV): 0.05 µM | time to upregulation of p53 (p53 in BxPC-3 and Calu-3): 48 h | increase in p21^Waf1/Cip1 expression (p21^Waf1/Cip1 in BxPC-3): 20 fold | increase of γH2AX over untreated controls (MDA-MB-231 [4]): about 2 fold | increase of γH2AX over untreated controls (NCI-N87 [5]): about 4 fold | decrease of p21^WAF1/Cip1 [6]: 31% | IC50 (MDA-MB-231 [2]): 0.0048 ± 0.0017 µM | RF (resistance factor) (MDA-MB-231-S120): 51.7 | IC50 (MDA-MB-231-S120): 0.248 ± 0.079 µM | RF (resistance factor) (NCI-N87-S120): 49.1 | IC50 (NCI-N87-S120): 0.211 ± 0.039 µM | resistance of S-120 cells vs parental cells (NCI-N87-S120; both S-120 cells): about 50 fold
